Laboratory results from patent US9675584B2, “Substituted indoles for the inhibition of PASK” (BioEnergenix, LLC, priority 2011, dated 2017).
pIC50: −log10 of the molar value.

Target: T1, hPASK (Homo sapiens, UniProt Q96RG2)
T1 construct: IC50 Kinase Domain; purchased Invitrogen
Experiment: Biochemical assay for hPASK activity (PAS kinase FRET assay; IC50 kinase domain)
Conditions: PASK kinase domain
Procedure: Biochemical Assay for hPASK Activity
One assay for purified hPASK activity utilizes the Kinase-Glo Luminescent Kinase Assay (Promega), which quantifies the amount of ATP remaining in solution following kinase reaction. The assay is carried out in a 96-well plate format and is performed by adding a volume of Kinase-Glo Reagent (Promega, catalog #V3771) equal to the volume of solution in the well of a completed kinase reaction. Kinase-Glo reagent contains Luciferase and its substrate. After addition to a kinase reaction it allows to measure luminescence. The amount of ATP left in solution at the time of Kinase-Glo Plus addition is directly proportional to the luminescence that is measured in each well, and inversely correlated with kinase activity.
Purified hPASK from insect cells (0.02 μg) is added to a 50 μL reaction mix containing 40 mM HEPES (pH 7.0), 100 mM KCl, 5 mM MgCl2, 1 mM DTT and 1 μg of MBP protein. […] The luminescence is measured as soon as 10 minutes after Kinase-Glo reagent is added. […]
The aim of the FRET assay is to determine the inhibition potential of test compounds on targeted kinase. This assay platform provides a homogenous screening method for measuring kinase activity by quantitating the amount of phospho-substrate in solution following a kinase reaction. […]

T1 sequence (Q96RG2 999-1251 limits assumed): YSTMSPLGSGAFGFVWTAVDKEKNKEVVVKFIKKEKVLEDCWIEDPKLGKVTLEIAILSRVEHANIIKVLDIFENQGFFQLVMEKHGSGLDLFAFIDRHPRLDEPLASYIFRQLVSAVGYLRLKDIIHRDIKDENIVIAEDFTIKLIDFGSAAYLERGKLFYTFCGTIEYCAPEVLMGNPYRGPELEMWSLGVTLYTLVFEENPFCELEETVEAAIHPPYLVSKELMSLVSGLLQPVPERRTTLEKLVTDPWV

| SMILES | pIC50 |
| --- | --- |
| O=C(O)c1ccc2c(c1)cc(-c1ccc(F)cc1)n2-c1ccc(F)cc1 [Example 1, 1,2-Bis(4-fluorophenyl)-1H-indole-5-carboxylic acid] | ≥ 5.00 |
| O=C(O)/C=C/c1cnc(-c2ccc(F)cc2)c(-c2ccc(F)cc2)n1 [Example 2, (E)-3-(5,6-bis(4-fluorophenyl)pyrazin-2-yl)acrylic acid] | ≥ 5.00 |
